Source: the NIST ThermoML archive (doi:10.1021/je500857w)
Numbers after ± are expanded uncertainties.

Experiment: xn = mol fraction of the nth substance listed
Details: Gas, Vibrating wire viscometry, x1 = 0.949

`C` [methane] + CCC gave a viscosity (199.92 K, 10367 kPa) of 0.03814 ± 0.0019 mPa·s, a viscosity (200.6 K, 13841 kPa) of 0.04236 ± 0.0016 mPa·s and a viscosity (202.32 K, 17279 kPa) of 0.04452 ± 0.0017 mPa·s. For the same compound, the viscosity (203.24 K, 24182 kPa) was 0.05008 ± 0.0018 mPa·s, the viscosity (203.36 K, 20735 kPa) was 0.04739 ± 0.0019 mPa·s and the viscosity (203.36 K, 27628 kPa) was 0.05294 ± 0.0018 mPa·s. For the same compound, the viscosity (203.43 K, 25922 kPa) was 0.0511 ± 0.0019 mPa·s, the viscosity (204.19 K, 31114 kPa) was 0.05549 ± 0.0018 mPa·s and the viscosity (255.51 K, 24135 kPa) was 0.03085 ± 0.00042 mPa·s. For the same compound, the viscosity (255.57 K, 31095 kPa) was 0.03577 ± 0.0006 mPa·s, the viscosity (255.59 K, 25902 kPa) was 0.03221 ± 0.00046 mPa·s and the viscosity (255.59 K, 27592 kPa) was 0.03348 ± 0.00048 mPa·s. For the same compound, the viscosity (255.62 K, 20701 kPa) was 0.02791 ± 0.00042 mPa·s, the viscosity (311.08 K, 25869 kPa) was 0.02348 ± 0.00038 mPa·s and the viscosity (311.11 K, 31037 kPa) was 0.0265 ± 0.0004 mPa·s. It also gave a viscosity (311.12 K, 20946 kPa) of 0.02061 ± 0.00062 mPa·s, a viscosity (311.13 K, 24419 kPa) of 0.02279 ± 0.00062 mPa·s and a viscosity (311.13 K, 27584 kPa) of 0.02453 ± 0.00046 mPa·s. For the same compound, the viscosity (366.88 K, 24192 kPa) was 0.01997 ± 0.00032 mPa·s, the viscosity (366.89 K, 25926 kPa) was 0.02064 ± 0.0003 mPa·s and the viscosity (366.89 K, 27645 kPa) was 0.02138 ± 0.00032 mPa·s. For the same compound, the viscosity (366.89 K, 31144 kPa) was 0.0226 ± 0.00054 mPa·s, the viscosity (423.62 K, 24191 kPa) was 0.01944 ± 0.00034 mPa·s and the viscosity (423.63 K, 25937 kPa) was 0.01988 ± 0.00028 mPa·s. It also gave a viscosity (423.63 K, 27640 kPa) of 0.02032 ± 0.00034 mPa·s and a viscosity (423.63 K, 31097 kPa) of 0.02136 ± 0.0003 mPa·s.
